In patent US6737433B1, “1-N-phenylamino-1H-imidazole derivatives as aromatase inhibitors and pharmaceutical compositions containing them” (Laboratoire Theramex, priority 2002, dated 2004):
Structures can show the parent of a compound that is named as a salt.

Experiments:
[1] = target: T1, human aromatase (Homo sapiens, UniProt P11511); experiment: Inhibition of human aromatase in vitro in JEG-3 cells (3H-water release from 1β-3H-androstenedione); format: cell-based; conditions: 10 nM 1β-3H-androstenedione, 2 h incubation
T1 construct: The JEG-3 cell line, derived from a human placental choriocarcinoma, is intrinsically very rich in human aromatase; endogenous in cells; host or cells: JEG-3 (human placental choriocarcinoma)
T1 sequence (P11511 1-503): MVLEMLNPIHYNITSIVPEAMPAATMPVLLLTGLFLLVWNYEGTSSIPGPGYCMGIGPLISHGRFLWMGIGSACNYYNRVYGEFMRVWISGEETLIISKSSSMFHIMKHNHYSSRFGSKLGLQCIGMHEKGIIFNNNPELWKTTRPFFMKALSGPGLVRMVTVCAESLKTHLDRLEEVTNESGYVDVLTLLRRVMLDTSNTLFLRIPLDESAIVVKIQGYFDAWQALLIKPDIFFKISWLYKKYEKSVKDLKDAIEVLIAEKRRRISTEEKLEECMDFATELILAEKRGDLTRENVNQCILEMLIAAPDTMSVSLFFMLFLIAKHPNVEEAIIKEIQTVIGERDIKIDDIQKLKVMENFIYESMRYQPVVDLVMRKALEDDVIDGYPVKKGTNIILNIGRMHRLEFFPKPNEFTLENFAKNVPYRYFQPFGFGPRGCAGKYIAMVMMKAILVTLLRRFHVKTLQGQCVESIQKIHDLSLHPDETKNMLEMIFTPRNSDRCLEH
Protocol: Stocks of JEG-3 cells are grown up to 80% of confluence as monolayers in plastic flasks in minimum Eagle's medium with 1 g/l glucose and 10% decomplemented fetal calf serum at pH 7.4 and 37° C., under a 5% CO2 atmosphere. Then, 24 hours before aromatase activity measurement, JEG-3 cells are distributed for seeding in 96-well microplates (60,000 to 100,000 viable cells in 100 μl of culture medium per well); 24 hours later, microplates are rinsed and fresh medium containing the radioactive aromatase substrate (1β-^3H-androstenedione, 10 nM) is added together with test compounds dissolved with 1% dimethylsulfoxyde in a test concentration range between 10^−11 and 10^−4 M in a total volume of 150 μl.
Two hours after the beginning of the incubation, 100 μl of the supernatants are transferred to homologous new 96-well microplates. A solution of dextran-coated charcoal (1%) is added in each well (100 μl/well); after standing for 10 minutes on ice, microplates are centrifuged (1500 g) for 10 more minutes at 4° C. All steroids, including the radioactive substrate and the newly biosynthesized estrogens, are trapped complexed by the charcoal; only the ^3H-water specifically formed during aromatisation of 1β-^3H-androstenedione, involving a specific oxidative step removing the 1β-^3H, remains in the supernatant at this stage.
Finally, aromatase activity is expressed in fmoles/μg DNA in 2 hours and aromatase inhibition in percentage of control incubation without inhibitors.

For `N#Cc1ccc(N(Cc2ccc(F)cc2F)n2ccnc2)cc1` [Example 18, 4-[N-(1H-imidazol-1-yl)-N-(2,4-difluorophenylmethyl)amino]benzonitrile], the IC50 [1] was 140 ± 10 pM and the melting point was 149 °C.

In the case of `COc1ccc(CN(c2ccc(C#N)cc2)n2ccnc2)cc1` (as salt: hydrochloride) [Example 8, 4-[N-(1H-imidazol-1-yl)-N-(4-methoxyphenylmethyl)amino]benzonitrile], the melting point is reported as 178 °C.

Work on `CSc1ccc(CN(c2ccc(C#N)cc2)n2ccnc2)cc1` [Example 15, 4-[N-(1H-imidazol-1-yl)-N-(4-methylthiophenylmethyl)amino]benzonitrile] yielded an IC50 [1] of 210 ± 50 pM and a melting point of 128 °C.

Molecule `N#Cc1ccc(N(c2ccc(C#N)cc2C(F)(F)F)n2ccnc2)cc1` [Example 25, 4-[N-(1H-imidazol-1-yl)-N-(4-cyanophenyl)amino]-3-trifluoromethylbenzonitrile] has an IC50 [1] of 660 ± 140 pM and a melting point of 166 °C.

Molecule `COc1ccc(CN(c2ccc(C#N)cc2)n2ccnc2)cc1F` (as salt: hydrochloride) [Example 9, 4-[N-(1H-imidazol-1-yl)-N-(3-fluoro-4-methoxyphenylmethyl)amino]benzonitrile] has a melting point of 190 °C.

With `N#Cc1ccc(N(Cc2ccc(Br)cc2)n2ccnc2)cc1` (as salt: hydrochloride) [Example 20, 4-[N-(1H-imidazol-1-yl)-N-(4-bromophenylmethyl)amino]benzonitrile] the melting point was 125 °C.

Work on `N#Cc1ccc(N(Cc2cccc(C(F)(F)F)c2)n2ccnc2)cc1` [Example 29, 4-[N-(1H-imidazol-1-yl)-N-(3-trifluoromethylphenylmethyl)amino]benzonitrile] yielded an IC50 [1] of 190 ± 50 pM and a melting point of 122 °C.

For `N#Cc1ccc(N(Cc2ccc(Cl)cc2)n2ccnc2)cc1` (as salt: hydrochloride) [Example 7, 4-[N-(1H-imidazol-1-yl)-N-(4-chlorophenylmethyl)amino]benzonitrile], the melting point was 190 °C.

In the case of `COc1ccc(CN(c2ccc(C#N)cc2)n2ccnc2)cc1OC` (as salt: hydrochloride) [Example 12, 4-[N-(1H-imidazol-1-yl)-N-(3,4-dimethoxyphenylmethyl)amino]benzonitrile], the melting point is reported as 167 °C.

In the case of `Cn1nnc2ccc(N(Cc3ccc(C#N)cc3)n3ccnc3)cc21` [Example 22, 4-[N-(1-methylbenzotriazol-6-yl)-N-(1H-imidazol-1-yl)aminomethyl]benzonitrile], the IC50 [1] is reported as 200 ± 50 pM and the melting point is reported as 184 °C.

`N#Cc1ccc(N(Cc2ccc(F)cc2)n2ccnc2)cc1` (as salt: hydrochloride) (hydrate or solvate) [Example 14, 4-[N-(1H-imidazol-1-yl)-N-(4-fluorophenylmethyl)amino]benzonitrile] showed a melting point of 176 to 178 °C.

`Cc1cncn1N(Cc1ccc(Br)cc1)c1ccc(C#N)cc1` [Example 31, 4-[N-(5-methyl-1H-imidazol-1-yl)-N-(4-bromophenylmethyl)amino]benzonitrile] showed an IC50 [1] of 580 ± 180 pM and a melting point of 152 °C.

`N#Cc1ccc(CN(c2ccc(C#N)cc2)n2ccnc2)cc1` (as salt: hydrochloride) [Example 11, 4-[N-(1H-imidazol-1-yl)-N-(4-cyanophenylmethyl)amino]benzonitrile] gave a melting point of 195 °C.

With `N#Cc1ccc(CN(c2ccc(Br)cc2)n2ccnc2)cc1` [Example 21, 4-[N-(1H-imidazol-1-yl)-N-(4-bromophenyl)aminomethyl]benzonitrile] the IC50 [1] was 1120 ± 550 pM and the melting point was 138 °C.

`N#Cc1ccc(CN(c2ccc(C#N)cc2C(F)(F)F)n2ccnc2)cc1` [Example 23, 4-[N-(1H-imidazol-1-yl)-N-(4-cyanophenylmethyl)amino]-3-trifluoromethylbenzonitrile] gave an IC50 [1] of 480 ± 130 pM and a melting point of 226 °C.

In the case of `Cc1ccc(CN(c2ccc(C#N)cc2)n2ccnc2)cc1` [Example 10, 4-[N-(1H-imidazol-1-yl)-N-(4-methylphenylmethyl)amino]benzonitrile], the IC50 [1] is reported as 140 ± 30 pM and the melting point is reported as 156 °C.

`N#Cc1ccc(N(Cc2ccccc2)n2ccnc2)cc1` [Example 24, 4-[N-(1H-imidazol-1-yl)-N-(phenylmethyl)amino]benzonitrile] showed an IC50 [1] of 180 ± 90 pM and a melting point of 107 °C.

Work on `Cc1cn(N(Cc2ccc(Br)cc2)c2ccc(C#N)cc2)cn1` [Example 30, 4-[N-(4-methyl-1H-imidazol-1-yl)-N-(4-bromophenylmethyl)amino]benzonitrile] yielded an IC50 [1] of 1160 ± 550 pM and a melting point of 152 °C.

For `N#Cc1ccc(N(c2ccc(C#N)cc2)n2ccnc2)cc1` [Example 13, 4,4′-[N-(1H-imidazol-1-yl)amino]bis-benzonitrile], the IC50 [1] was 440 ± 40 pM.

`N#Cc1ccc(N(c2ccc(C#N)cc2)n2ccnc2)cc1` (as salt: hydrochloride) [Example 13, 4,4′-[N-(1H-imidazol-1-yl)amino]bis-benzonitrile] showed a melting point of 199 °C.

`Cc1ncn(N(Cc2ccc(Br)cc2)c2ccc(C#N)cc2)c1C` [Example 32, 4-[N-(4,5-dimethyl-1H-imidazol-1-yl)-N-(4-bromophenylmethyl)amino]benzonitrile] showed a melting point of 150 °C.

`N#Cc1ccc(N(Cc2cccc(F)c2)n2ccnc2)cc1` [Example 26, 4-[N-(1H-imidazol-1-yl)-N-(3-fluorophenylmethyl)amino]benzonitrile] showed an IC50 [1] of 130 ± 50 pM and a melting point of 112 °C.

With `COc1ccc(CN(c2ccc(C#N)cc2)n2ccnc2)cc1F` [Example 9, 4-[N-(1H-imidazol-1-yl)-N-(3-fluoro-4-methoxyphenylmethyl)amino]benzonitrile] the IC50 [1] was 160 ± 60 pM.

In the case of `N#Cc1ccc(N(c2ccc(F)cc2)n2ccnc2)cc1` [Example 28, 4-[N-(1H-imidazol-1-yl)-N-(4-fluorophenyl)amino]benzonitrile], the IC50 [1] is reported as 1570 ± 740 pM and the melting point is reported as 113 °C.

With `N#Cc1ccc(N(c2ccc(C(F)(F)F)cc2)n2ccnc2)cc1` [Example 5, 4-[N-(1H-imidazol-1-yl)-N-(4-trifluoromethylphenyl)amino]benzonitrile] the IC50 [1] was 540 ± 260 pM.

Molecule `CS(=O)(=O)c1ccc(CN(c2ccc(C#N)cc2)n2ccnc2)cc1` [Example 16, 4-[N-(1H-imidazol-1-yl)-N-(4-methylsulfonylphenylmethyl)amino]benzonitrile] has an IC50 [1] of 350 ± 70 pM.

For `COc1ccc(CN(c2ccc(C#N)cc2)n2ccnc2)cc1` [Example 8, 4-[N-(1H-imidazol-1-yl)-N-(4-methoxyphenylmethyl)amino]benzonitrile], the IC50 [1] was 140 ± 50 pM.

Work on `COC(=O)c1ccc(CN(c2ccc(C#N)cc2)n2ccnc2)cc1` [Example 27, Methyl 4-[N-(4-cyanophenyl)-N-(1H-imidazol-1-yl)aminomethyl]benzoate] yielded a melting point of 178 °C.

Molecule `N#Cc1ccc(N(Cc2ccc(Br)cc2)n2ccnc2)cc1` [Example 20, 4-[N-(1H-imidazol-1-yl)-N-(4-bromophenylmethyl)amino]benzonitrile] has an IC50 [1] of 220 ± 50 pM.

For `N#Cc1ccc(N(Cc2cc(F)cc(F)c2)n2ccnc2)cc1` [Example 19, 4-[N-(1H-imidazol-1-yl)-N-(3,5-difluorophenylmethyl)amino]benzonitrile], the IC50 [1] was 400 ± 60 pM and the melting point was 170 °C.
